From patent publication US10209240B2, “Predicting human developmental toxicity of pharmaceuticals using human stem-like cells and metabolomic ratios” (STEMINA BIOMARKER DISCOVERY, INC., priority 2012, dated 2019)

Columns and labels:
WA09 hES cells [1] = assay: Phase 1 untargeted metabolomics of hES cell spent media, single concentration (ornithine, cystine, o/c ratio); assay type: cell-based, human; settings: for Cystine abundance relative to the reference treatment / Ornithine abundance relative to the reference treatment: Phase 1, spent media, 72 hours, reference 0.1% DMSO; for Cystine abundance relative to the reference treatment: Cmax exposure (IC30 for hydroxyurea); for Ornithine abundance relative to the reference treatment: Cmax or IC30 exposure
Method: Undifferentiated hES Cell Line Maintenance (Phases 1 and 2).
96-well hES Cell Plating (Phases 1 and 2). […] Compound exposure began 24 hours after plating.
Sample Preparation (Phases 1 and 2).
Phase 1 Mass Spectrometry. LC-HRMS data was acquired for nine biological replications on three separate LC-HRMS systems with three replications evaluated on each system. Each system consisted of an Agilent 1290 Infinity LC system interfaced either with an Agilent G6520A QTOF high resolution mass spectrometer (QTOF HRMS), an Agilent G6530A QTOF HRMS, or an Agilent G6224A TOF HRMS system (Agilent Technologies, Santa Clara, Calif.). To facilitate separation of biological small molecules with a wide range of structures and to allow increased retention of hydrophilic species, Hydrophilic Interaction Liquid Chromatography (HILIC) was utilized. A Luna HILIC column (Phenomenex, Torrance, Calif.) with dimensions 3×100 mm and 3 μm particle size was used and maintained at 30° C. […] Electrospray ionization was employed using a dual ESI source. The scan range of the instrument was 70-1600 Da. Data acquisition was performed with MassHunter Acquisition software (version B 04.00, Agilent Technologies) using high-resolution exact mass conditions and each set of samples was run first under ESI positive polarity then under ESI negative polarity conditions.
Peak Detection (Phases 1 and 2). […] Mass features (peaks) were detected using the centwave algorithm.
Ornithine/Cystine Ratio Calculation.
Teratogenicity Threshold Selection (Phases 1 and 2).
Phase 1 Prediction of Developmental Toxicity Potential. A test compound was classified as a developmental toxicant if the mean of the change in the abundance in the treated sample compared to the reference treatment (DMSO) across the nine experimental replications for either metabolite or the o/c ratio exceeded its respective teratogenicity threshold at the concentration tested. The predictive accuracy (correct prediction), sensitivity (true positive rate), and specificity (true negative rate) were based on scoring the predicted result (teratogen or non-teratogen) against the known human teratogenicity of the compound.

WA09 hES cells [2] = assay: Phase 2 targeted biomarker assay, ornithine/cystine ratio, 9-point dose response; settings: for Teratogenicity Potential (μM) O/C Ratio: human, 72 h
Outline: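 WA09 hES cells (≤ passage 40), plated as single cells at 100,000/well on Matrigel in mTeSR1 with 10 μM Y27632, dosed 24 h later with nine 3-fold dilutions, 0.04–300 μM, 0.1% DMSO, for 72 h. Final-24 h spent medium, spiked with 13C6-arginine and filtered (<10 kDa), analysed by LC-HRMS; viability by CellTiter-Fluor.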

hES cells = assay: ADMA/cystine ratio simplified predictive model in hES cell spent media; assay type: cell-based, human; settings: single dose per treatment; ratios less than 0.9 indicate teratogenicity
Outline: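 hES cell spent media were analysed for ADMA and cystine, each normalized to the DMSO reference, and their ratio formed. Each value is the median of independent blocks (6 reps each). A ratio cutoff of 0.9 classifies teratogens versus non-teratogens.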

[3] = training set; therapeutic peak plasma in vivo concentration, human; cited from earlier work
Rabbit = settings: training and test set; cited from earlier work
rat whole embryo = settings: training and test set; weak/moderate and strong teratogens both labeled teratogen; cited from earlier work
[4] = training set compounds; summarized from TERIS and Briggs et al. 2011; cited from earlier work

Structure (SMILES) | O/C Ratio Prediction (WA09 hES cells [2]) | Targeted Biomarker Assay prediction (WA09 hES cells [2]) | Classification by o/c ratio in the targeted biomarker assay (WA09 hES cells [2]) | Cystine abundance relative to the reference treatment (WA09 hES cells [1]) | Ornithine abundance relative to the reference treatment (WA09 hES cells [1]) | Teratogenicity Potential (μM) O/C Ratio (WA09 hES cells [2]) | Model Predictions ADMA/Cystine (hES cells) | Cmax [3] | Rabbit prediction (Rabbit) | WEC prediction (rat whole embryo) | Preclinical in vivo and known human developmental effects [4] | Change in the o/c ratio, also relative to cytotoxicity (WA09 hES cells [2]) | Classification by o/c ratio in Phase 1 (WA09 hES cells [1]; teratogenicity threshold of a 12% decrease in the o/c ratio, single concentration)
NC(=O)N1c2ccccc2C=Cc2ccccc21 [Carbamazepine] | TER | TER | – | significant increase in abundance | – | 0.9 µM | Ter | – | – | TER^j | Craniofacial, central | – | –
O=C1CCC(N2C(=O)c3ccccc3C2=O)C(=O)N1 (centres unmarked) [Thalidomide] | TER | TER | – | significant increase in abundance | – | 0.2 µM | Ter | 12400 nM | TER | TER^f | Craniofacial, | change in the o/c ratio indicative of developmental toxicity in the absence of cytotoxicity | –

Second part, led by results:

O/C Ratio Prediction (WA09 hES cells [2]) | Targeted Biomarker Assay prediction (WA09 hES cells [2]) | Classification by o/c ratio in the targeted biomarker assay (WA09 hES cells [2]) | Structure (SMILES) | Cystine abundance relative to the reference treatment (WA09 hES cells [1]) | Ornithine abundance relative to the reference treatment (WA09 hES cells [1]) | Teratogenicity Potential (μM) O/C Ratio (WA09 hES cells [2]) | Model Predictions ADMA/Cystine (hES cells) | Cmax [3] | Rabbit prediction (Rabbit) | WEC prediction (rat whole embryo) | Preclinical in vivo and known human developmental effects [4] | Change in the o/c ratio, also relative to cytotoxicity (WA09 hES cells [2]) | Classification by o/c ratio in Phase 1 (WA09 hES cells [1]; teratogenicity threshold of a 12% decrease in the o/c ratio, single concentration)
TER | TER | – | CC1=C(/C=C/C(C)=C/C=C/C(C)=C\C(=O)O)C(C)(C)CCC1 [13-cis Retinoic Acid] | significant increase in abundance | increased | 0.0007 µM | Ter | 2900 nM | TER | TER^s | Craniofacial, limb, central | – | –
TER | TER | – | CC1=C(/C=C/C(C)=C/C=C/C(C)=C/C(=O)O)C(C)(C)CCC1 [All-trans Retinoic Acid] | significant increase in abundance | increased | 0.00004 µM | Ter | 1200 nM | TER | TER^q,s | Craniofacial, limb, central | change in the o/c ratio indicative of developmental toxicity in the absence of cytotoxicity | –
NON | NON | misclassified | O=C1NC(=O)C(c2ccccc2)(c2ccccc2)N1 [Diphenylhydantoin] | – | – | 263.3 µM | Non | – | TER | TER^f,j | Craniofacial, limb, | – | misclassifying
